Results on 2 substances are retold here after patent US8101180B2, “Anti-IGF-IR and/or anti-insulin/IGF-I hybrid receptors antibodies and uses thereof” (Pierre Fabre Medicament, priority 2002, dated 2012).

One experiment concerns MCF-7 cells. Put plainly: IGF2-induced proliferation of MCF-7 cells. The following applies: IGF2 200 ng/ml; MAb 10 μg/ml. The format is cell-based, human. How it is done: As indicated above, IGF-IR is overexpressed by numerous tumors but it has furthermore been described that in a good part of the cancers of the breast and of the colon especially, the proliferation signal is given to this receptor via IGF2 (sometimes written IGF-II or IGFII). […] In order to do this, cells were inoculated into 96-well plates, deprived of fetal calf serum and stimulated by the addition of 200 ng of IGF2 per ml, final concentration, of medium, in the presence and in the absence of the MAb to be tested introduced at a concentration of 10 μg/ml.

Another experiment concerns A549 cells. The experiment in a line: ADCC with human NK cells on A549 cells (51Cr). The format is cell-based. The following applies: 4 hours, 10 μg antibody per 5·10^5 cells. Here is the method: In order to verify this point, NK (Natural Killer) cells coming from the peripheral blood of human donors are placed in the presence of A549 or MCF-7 cells previously incubated for 4 hours with 10 μg of 7H2HM antibody per 5·10^5 cells and labeled with ^51Cr ([…]).

Entries after “also recorded” stand apart in the source; their conditions may differ.

On to “7C10: murine monoclonal anti-IGF-IR IgG1 secreted by the hybridoma deposited at the CNCM under the number I-2717”, for which the “inhibition of IGF2-induced growth of MCF-7 cells” value in the experiment on MCF-7 cells is reported as “totally inhibits the growth induced by IGF2; also recorded: significantly better than that of 1H7”.

In the case of “h7C10: humanized 7C10 anti-IGF-IR antibody, isotype IgG1 (humanized 1 written 7H2HM)”, the “ADCC on A549 cells” value in the experiment with A549 cells was “capable of inducing an ADCC”.
